# Assay results published in patent US20120121691A1, “Method for Increasing the Production of a Specific ACYL-Chain Dihydroceramide(s) for Improving the Effectiveness of Cancer Treatments” (priority 2010, published 2012).
# Assays:
# [1] = test system: intracellular sphingolipids, MOLT-4; assay: LC/MS/MS analysis of intracellular sphingolipids, MOLT-4; type: cell-based, human; settings: for increase in corresponding dihydroceramide over sphinganine+GT-11 alone: MOLT-4, fatty acid with sphinganine+GT-11, six hours, P<0.05
# Method: (§1) LC/MS/MS analysis of intracellular sphingolipids. Sphingolipids were separated using an Agilent 1200 HPLC (LC) and determined by ESI/MS/MS performed on a AB SCIEX 4000 QTRAP Hybrid Triple Quadrupole/Linear Ion Trap mass spectrometer (MS), operating in a multiple reaction monitoring positive ionization mode as described previously with moderate modifications (25). Briefly, 50 μL of a solution (1 μM) of internal sphingolipid standards (including -sphingosine, -sphinganine, -sphingosine-1-phosphate, and -ceramide) was added to each cell pellet sample. Lipids of each sample were extracted twice with 2 mL of the ethyl acetate/isopropyl alcohol/water (60:28:12; v:v) solvent system. Supernatants were transferred to glass tubes (Kimble Chase) and evaporated under air (10 PSI) at 40° C. After reconstitution in methanol (4 mL), 1 ml of each sample was separated for the determination of lipid phosphate. Remaining sample (3 mL) was dried and used for sphingolipid quantification. For ESI/MS/MS, the dried lipid sample was dissolved in mobile phase A. Samples were injected (10 μL) and separated on a Spectra C8SR, 150×3.0 mm, 3-μm particle size column using gradient-elution (mobile phase A/B, prepared as previously described).
# Data acquisition, peak integration and analyte quantitation were performed using ABI/SCIEX Analyst 1.4.2 Software. Sphingolipid data were normalized to lipid phosphate as previously described (26). Briefly, samples were dried under air (10 PSI) and lipids were extracted using the method of Bligh and Dyer (27). Of importance for phosphate assay, only Kimble Chase disposable borosilicate tubes were used for minimal sample contamination. […] Samples were then incubated with ammonium molybdate and ascorbic acid as previously described, and absorbance ([…]) was read using a SpectraMax.
# Cells were treated for 48 hours with Sa (0-4 μM)+/−GT-11 (0.5 μM) with or without C18:0-, C22:0- or C22:1-fatty acids. Cytotoxicity was measured using DIMSCAN, and data was normalized to control and plotted as survival fraction (y-axis). […]
# [2] = test system: COG-LL-317; assay: DIMSCAN cytotoxicity assay, COG-LL-317; type: cell-based; settings: COG-LL-317, sphinganine 1 μM, GT-11 0.5 μM, 48 hours
# Text: Cell culture. The pre-T acute lymphoblastic leukemia cell lines MOLT-4 and CCRF-CEM, small cell lung cancer cell line NCI-H146, non-small cell lung cancer cell line NCI-H1792, colon cancer cell lines LoVo and HT-29, and breast cancer cell line MCF-7, were purchased from American Type Culture Collection, Manassas, Va., and grown at 20%/5% and 5%/5%, respectively. COG-LL-317 and COG-LL-332 pre-T acute lymphoblastic leukemia cell lines were obtained from the TTUHSC Cancer Center Cell Repository and grown at 5%/5%. Cell line identities were verified by short tandem repeat analysis and mycoplasma testing was performed. Cell lines were maintained in RPMI-1640 medium supplemented with 10% fetal bovine serum (FBS, Invitrogen) in humidified, 37° C. incubators. For all experiments, ALL cell lines were seeded at […] in RPMI-1640 medium supplemented with 15% fetal bovine serum. Solid tumor cell lines were plated at 5×cells/mL in RPMI-1640 medium supplemented with 10% fetal bovine serum.
# Cytotoxicity Assay. Cytoxicity is determined using the DIMSCAN assay system (R. Proffitt et al., Cytometry 24, 204-213 (1996); T. Frgala et al., Proc. AACR, 36, 303 (1995). The system employs digital imaging microscopy to quantify viable cells, which selectively accumulate fluorescein diacetate to become brightly fluorescent. The system is capable of measuring cytotoxicity over a 4-5 log dynamic range by quenching the residual fluorescence of dead and dying cells with eosin Y and quantifying the total fluorescence of viable cells using digital thresholding. Measured fluorescence is directly proportionate to the number of viable cells. A comparison of the total fluorescence of a drug-treated cell population to the fluorescence of a similar number of untreated cells yields a survival fraction. […]
# The addition of C22:0-fatty acid, but not C18:0 or C22:1 fatty acids, increased cytotoxicity (FIGS. 7A-7F). […] Cytotoxicity was measured using DIMSCAN, and data was normalized to control and plotted as survival fraction (y-axis). […]
# [3] = test system: intracellular sphingolipids, COG-LL-332; assay: LC/MS/MS analysis of intracellular sphingolipids, COG-LL-332; type: cell-based, human; settings: for increase in corresponding dihydroceramide over sphinganine+GT-11 alone: COG-LL-332, fatty acid with sphinganine+GT-11, six hours, P<0.05
# Method: as §1
# Data acquisition, peak integration and analyte quantitation were performed using ABI/SCIEX Analyst 1.4.2 Software. Sphingolipid data were normalized to lipid phosphate as previously described (26). Briefly, samples were dried under air (10 PSI) and lipids were extracted using the method of Bligh and Dyer (27). Of importance for phosphate assay, only Kimble Chase disposable borosilicate tubes were used for minimal sample contamination. Organic phase was transferred to glass tubes and a known volume was separated to a new tube and dried at 80° C. Phosphate standards and dried samples were then heated with ashing buffer (water:10 N:70% [40:9:1]) at 160° C. overnight. Samples were then incubated with ammonium molybdate and ascorbic acid as previously described, and absorbance ([…]) was read using a SpectraMax.
# Cells were treated for 48 hours with Sa (0-4 μM)+/−GT-11 (0.5 μM) with or without C18:0-, C22:0- or C22:1-fatty acids. Cytotoxicity was measured using DIMSCAN, and data was normalized to control and plotted as survival fraction (y-axis). Gray and white symbols represent long and very long chain fatty acids, respectively. Gray lines encompass data used for sphingolipid correlation analysis with cytotoxicity. Datum point, mean; error bar, SEM. […]
# Cytotoxicity was measured using DIMSCAN, and data was normalized to control and plotted as survival fraction (y-axis).
SMILES,"increase of C22:0-dihydroceramide over sphinganine+GT-11 alone ([1]; MOLT-4, fatty acid with sphinganine 1 μM plus GT-11 0.5 μM, six hours, P<0.01)",increase in corresponding dihydroceramide over sphinganine+GT-11 alone [1],effect of fatty acid co-treatment on cytotoxicity of sphinganine with GT-11 [2],"increase of C22:0-dihydroceramide compared to 4-HPR alone ([3]; COG-LL-332, fatty acid with 4-HPR 1.1 μM, six hours, P<0.001)","increase of C22:0-dihydroceramide over sphinganine+GT-11 alone ([3]; COG-LL-332, fatty acid with sphinganine 1 μM plus GT-11 0.5 μM, six hours, P<0.001)",increase in corresponding dihydroceramide over sphinganine+GT-11 alone [3]
CCCCCCCCCCCCCCCCCCCCCC(=O)O [C22:0-fatty acid],29 fold,significant increases,increased,8 fold,57 fold,significant increases
CCCCCCCC/C=C\CCCCCCCCCCCC(=O)O [C22:1-fatty acid],–,significant increases,not,–,–,significant increases
